Results as given in patent publication US11718610B2, “Compounds containing benzosultam” (MEDSHINE DISCOVERY INC., priority 2020, dated 2023).
Where two headings read alike, the source gives them in different places.

What was measured:
[1] = tested on: Colo205 cells; assay: Colo205 (BRAF V600E) antiproliferative activity experiment (CellTiter-glo); assay type: cell-based; settings: Homo sapiens, COLO 205, 72 h, cultured 3 days
Protocol: Experimental Embodiment 4: Colo205 (BRAF^V600E) Antiproliferative Activity Experiment
Cell line COLO205 (purchased from Procell), RPMI1640 culture medium, penicillin/streptomycin antibiotics were purchased from Vicente, and fetal bovine serum was purchased from Biosera. CellTiter-glo (cell viability chemiluminescence detection reagent) reagent was purchased from Promega.
COLO205 cells were seeded in a white 96-well plate with […] of cell suspension per well containing 3000 of COLO205 cells. The cell plate was placed in a carbon dioxide incubator and cultured overnight. The compound to be tested was diluted 3-fold to the 9th concentration with a pipette, that is, diluted from […], and a double-duplicate experiment was set-up. 78 μmol of culture medium was added to the middle plate, then 2 μmol of gradient dilution compound per well was transferred to the middle plate according to the corresponding position, and 20 μmol of per well was mixed and transferred to the cell plate. The concentration of the compound transferred to the cell plate ranged from 1 μmol to 0.15 nmol. The cell plate was placed in a carbon dioxide incubator and cultured for 3 days. Another cell plate was prepared, and the signal value was read as the maximum value (max value in the following equation) on the day of administration to participate in data analysis. 25 μmol of cell viability chemiluminescence detection reagent was added to each well of the cell plate and incubated at room temperature for 10 minutes to stabilize the luminescence signal. A multi-marker analyzer reading was used. After the incubation of the cell plate added with the compound was finished, 25 μmol of cell viability chemiluminescence detection reagent was added to each well of the cell plate and incubated at room temperature for 10 minutes to stabilize the luminescence signal. A multi-marker analyzer reading was used.
The equation (Sample−Min)/(Max−Min)*100% was used to convert the original data into inhibition rate, and the IC50 value could be obtained by curve fitting with four parameters (obtained by “log (inhibitor) vs. response—variable slope” mode in GraphPad Prism).

[2] = tested on: HCT116 cells; assay: HCT116 (Kras G13D) antiproliferative activity experiment (CellTiter Glo); assay type: cell-based; settings: Homo sapiens, HCT-116, 72 h, cultured 3 days
Protocol: Experimental Embodiment 2: HCT116 (Kras^G13D) Antiproliferative Activity Experiment
(1) cell culture medium: 89% Mc′Coy 5A, 10% fetal bovine serum and 1% penicillin-streptomycin;
(2) culture medium and trypsin were preheated in a 37° C. water bath;
(3) the culture medium was removed in the cell culture flask and washed once with 1 mL of trypsin;
(4) 1 mL of trypsin was added to the cell culture flask, and the cell culture flask was shaken gently, and the trypsin was removed after full contact with the cell, and then the culture flask was placed into a 37° C. incubator containing 5% CO2 for about 1 minute;
(5) the cells were resuspended with 2 mL of cell culture medium, and about 0.01 mL of cell suspension was taken out for counting;
(§1) (6) the cell suspension was diluted with culture medium to a cell density required for plating of 2.5×10^4 cells per mL;
(7) 100 μL of culture medium was added to each well around the cell plate, and 80 μL of cell suspension was added to the other wells, and placed in a 37° C. incubator containing 5% CO2 for overnight culture.
(§2) (8) The required cell amount and culture medium were taken based on the new T75 culture flask for continued culture.
(§3) (1) the compound to be tested was prepared into […] solution with DMSO;
(2) 9 concentration gradients and 3-fold dilutions were performed on the compounds, that is, a double-duplicate experiment was set from 6 mmol to 2.7 μmol, and 78 μL of culture medium was added to the middle plate, and then 2 μL of gradient diluted compound per well was transferred to the middle plate according to the corresponding position, and after mixing, 20 μL per well was transferred to the cell plate, and the final concentration of the compound transferred to the cell plate was 30 μmol to 13.7 nmol. The cell plate was placed in a carbon dioxide incubator and cultured for another 3 days.
(1) CTG was added and the plate was read: 20 μL of CellTiter Glo was added to each well of the cell plate, and the cell plate was shaken in the dark for 10 min;
(2) plates were read on Victor Nivo.
The equation (Sample-Min)/(Max-Min)*100% was used to convert the original data into inhibition rate, and the IC50 value could be obtained by curve fitting with four parameters (obtained by “log (inhibitor) vs. response—variable slope” mode in GraphPad Prism).

[3] = Pharmacokinetics of single intravenous and oral administration in mice; assay type: in vivo; settings: for Cmax / Tmax: 50 mg/kg/day, single oral administration; for Cmax: read-out: Maximum plasma drug concentration Cmax; for Vd / clearance / half-life: single intravenous administration, 0.5 mg/kg/day; for Vd: read-out: Apparent distribution volume Vdss; for clearance: read-out: Clearance rate Cl; for half-life: read-out: Half-life (T1/2) (converted); for Tmax: read-out: Peak time Tmax
Protocol: Experimental Embodiment 6: Pharmacokinetics Study of Single Intravenous and Oral Administration in Mice and Dogs
This experiment was aimed to study the pharmacokinetics of the test compound in mice and dogs in vivo after a single oral administration of the compound.
After intravenous or oral administration, blood samples were collected and the actual blood collection time was recorded. After the blood sample was collected, the sample was immediately transferred to a labeled centrifuge tube containing K2-EDTA, and then the plasma was taken after centrifugation. The plasma was transferred to a precooled centrifuge tube, quickly frozen in dry ice, and stored in an ultra-low temperature refrigerator at −70±10° C. until LC-MS/MS analysis.
Pharmacokinetic software was used to process the plasma drug concentration data of the compound with […] model. The peak concentration (Cmax) and peak time (Tmax), as well as the end time of quantification, were obtained directly from the plasma drug concentration-time graph. The following pharmacokinetic parameters were calculated by logarithmic linear trapezoidal method: half-life (T1/2), apparent distribution volume (Vdss) and clearance rate (Cl), and the area under the time-plasma concentration curve from 0 to the end time point (AUC0-last).

[4] = tested on: Calu-6 cells; assay: Calu-6 (Kras Q61K) antiproliferative activity experiment (CellTiterGlo); assay type: cell-based, human; settings: cultured three days
Protocol: Experimental Embodiment 1: Calu-6 (Kras^Q61K) Antiproliferative Activity Experiment
(1) cell culture medium: 88% RPMI-1640, 10% fetal bovine serum, 1% L-glutamine and 1% penicillin-streptomycin;
(2) culture medium, trypsin and DPBS were preheated in a 37° C. water bath;
(3) the original culture medium was removed in the cell culture flask and washed once with 6 mL of PBS;
(4) 3.5 mL of trypsin was added to the cell culture flask, and the cell culture flask was shaken gently, and the trypsin was removed after full contact with the cell, and then the culture flask was placed into a 37° C. incubator containing 5% CO2 for about 1 minute;
(5) the cells were resuspended with 10 mL of cell culture medium, and about 0.6 mL of cell suspension (ViCell XR) was taken out for counting;
as §1
(7) 100 μL of PBS was added to each well around the cell plate, and 40 μL of cell suspension was added to the other wells, and placed in a 37° C. incubator containing 5% CO2 for overnight culture.
as §2, §3
(2) 9 μL of the compound was taken and added to Echo shallow well plate (Labcyte, #LP-0200), and the shallow well plate was centrifuged at 1000 rpm for 10 seconds;
(3) DPBS at the periphery of the cell plate was sucked out;
(4) the compound was gradient diluted and administrated with Echo, and 10 concentration gradients of each compound were diluted, and 100 nL of the diluent was added to the 384 cell plate separately, and then the cell plate was put back to the incubator and cultured for three days;
(5) then 100 μL of DPBS was added to the periphery of the cell plate.
(1) CTG was added and the plate was read: 20 μL of CellTiterGlo was added to each well of the cell plate, and the cell plate was shaken in the dark for 10 min. and the plate was read on Envision.

SMILES	IC50 [1] [nM]	IC50 [2] [nM]	Cmax ([3]; mouse, plasma, po) [µM]	Vd ([3]; mouse, plasma) [L/kg]	clearance ([3]; mouse, plasma) [mL/min/kg]	half-life ([3]; mouse, plasma) [h]	Tmax ([3]; mouse, plasma) [h]	IC50 ([4]; Homo sapiens, Calu-6, 72 h) [nM]	Cmax [3] [µM]	IC50 [4] [nM]
[2H]C1([2H])CC(Nc2ncc(Cl)c(-c3ccc4c(c3)S(=O)(=O)N([C@H](C)C(=O)N[C@H](CO)c3cc(F)cc(OC)c3)C4)n2)CC([2H])([2H])O1 [Compound 9]	14	105	124	0.297	7.03	1.26	1.5	222	–	–
COc1cc(F)cc([C@@H](CO)NC(=O)[C@@H](C)N2Cc3ccc(-c4nc(NC5CCOCC5)ncc4Cl)cc3S2(=O)=O)c1 [Compound 1]	–	103	–	0.4	10.3	1.16	1	–	73.4	88.5
COc1cc(F)cc([C@@H](CO)NC(=O)[C@@H](C)N2Cc3ccc(-c4nc(NC5CCOCC5)ncc4Br)cc3S2(=O)=O)c1 [Compound 3]	16	138	156	0.656	19	2.18	1	300	–	–
COc1cc(F)cc([C@@H](CO)NC(=O)[C@@H](C)N2Cc3ccc(-c4nc(N[C@H]5CCOC[C@H]5F)ncc4Cl)cc3S2(=O)=O)c1 [Compound 11]	16	123	157	0.422	13.8	1.17	0.75	–	–	–
